Reference: ChEMBL document CHEMBL1143441, “New classes of Gram-positive selective antibacterials: inhibitors of MRSA and surrogates of the causative agents of anthrax and tuberculosis” (2008)
≈ marks a conversion by molar mass, not a printed value.

Legend:
Assay type in all cases: functional
[1] = tested on: Staphylococcus aureus; experiment: Antimicrobial activity against Staphylococcus aureus ATCC 29213 by NCCLS M7-A6 method
[2] = tested on: Staphylococcus aureus; experiment: Antimicrobial activity against methicillin-resistant Staphylococcus aureus MC1 by NCCLS M7-A6 method
[3] = tested on: Bacillus cereus; experiment: Antimicrobial activity against Bacillus cereus by NCCLS M7-A6 method
[4] = tested on: Escherichia coli; experiment: Antimicrobial activity against Escherichia coli by NCCLS M7-A6 method
[5] = tested on: Mycolicibacterium smegmatis; experiment: Antimicrobial activity against Mycobacterium smegmatis by NCCLS M7-A6 method
[6] = tested on: Corynebacterium xerosis; experiment: Antimicrobial activity against Corynebacterium xerosis by NCCLS M7-A6 method
[7] = tested on: Corynebacterium diphtheriae; experiment: Antimicrobial activity against Corynebacterium diphtheriae Tox by NCCLS M7-A6 method
[8] = tested on: Corynebacterium pseudodiphtheriticum; experiment: Antimicrobial activity against Corynebacterium pseudodiphtheriticum by NCCLS M7-A6 method
[9] = tested on: Staphylococcus aureus; experiment: Antimicrobial activity against Staphylococcus aureus ATCC 25923 by NCCLS M7-A6 method
[10] = tested on: Staphylococcus aureus; experiment: Antimicrobial activity against methicillin-resistant Staphylococcus aureus MC2 by NCCLS M7-A6 method
[11] = tested on: Enterococcus faecium; experiment: Antimicrobial activity against vancomycin-resistant Enterococcus faecium 1 by NCCLS M7-A6 method
[12] = tested on: Enterococcus faecalis; experiment: Antimicrobial activity against Enterococcus faecalis ATCC 29212 by NCCLS M7-A6 method
[13] = tested on: Listeria monocytogenes; experiment: Antimicrobial activity against Listeria monocytogenes by NCCLS M7-A6 method
[14] = tested on: Streptococcus mitis; experiment: Antimicrobial activity against Streptococcus mitis by NCCLS M7-A6 method
[15] = tested on: Streptococcus agalactiae; experiment: Antimicrobial activity against Streptococcus agalactiae by NCCLS M7-A6 method
[16] = tested on: Streptococcus pyogenes; experiment: Antimicrobial activity against Streptococcus pyogenes by NCCLS M7-A6 method
[17] = tested on: Streptococcus pneumoniae; experiment: Antimicrobial activity against Streptococcus pneumoniae ATCC 49619 by NCCLS M7-A6 method
[18] = tested on: Priestia megaterium; experiment: Antimicrobial activity against Bacillus megaterium by NCCLS M7-A6 method
[19] = tested on: Bacillus subtilis; experiment: Antimicrobial activity against Bacillus subtilis by NCCLS M7-A6 method
[20] = tested on: Bacillus anthracis; experiment: Antimicrobial activity against Bacillus anthracis Sterne by NCCLS M7-A6 method
[21] = tested on: Pseudomonas aeruginosa; experiment: Antimicrobial activity against Pseudomonas aeruginosa by NCCLS M7-A6 method
[22] = tested on: Enterococcus faecium; experiment: Antimicrobial activity against vancomycin-resistant Enterococcus faecium 14 by NCCLS M7-A6 method

Which results are given for `COc1cc(/C=C/c2cccs2)cc(OC)c1`?
MIC [1]: > 512 µg/mL; MIC [2]: > 512 µg/mL; MIC [3]: > 512 µg/mL; MIC [4]: > 512 µg/mL; MIC [5]: > 512 µg/mL

How did the MIC [1] turn out when `COc1cc(O)cc(/C=C/Oc2ccccc2C)c1` was run?
Its MIC is 16 µg/mL (≈ 62.4 µM).

What about the MIC [2] of the same compound?
The MIC was 32 µg/mL (≈ 125 µM).

And the MIC [3]?
Its MIC is 64 µg/mL (≈ 250 µM).

What about the MIC [4] of the same compound?
The MIC was > 512 µg/mL.

What about the MIC [5] of the same compound?
Its MIC is > 128 µg/mL.

For `COc1cc(O)cc(/C=C/c2ccsc2)c1`, which MIC [1] is on record?
Its MIC is 32 µg/mL (≈ 138 µM).

What about the MIC [2] of the same compound?
The MIC was 32 µg/mL (≈ 138 µM).

And the MIC [3]?
The MIC was 32 µg/mL (≈ 138 µM).

What about the MIC [4] of the same compound?
The MIC was > 512 µg/mL.

What about the MIC [5] of the same compound?
The MIC was 64 µg/mL (≈ 276 µM).

How did the MIC [1] turn out when `COc1cc(/C=C/Oc2ccccc2)cc(OC)c1` was run?
Its MIC is > 512 µg/mL.

What about the MIC [2] of the same compound?
Its MIC is > 512 µg/mL.

What about the MIC [3] of the same compound?
The MIC was > 512 µg/mL.

What about the MIC [4] of the same compound?
The MIC was > 512 µg/mL.

What about the MIC [5] of the same compound?
The MIC was > 512 µg/mL.

`COc1cc(/C=C/Oc2cccc(C)c2)cc(OC)c1` was tested. Which MIC [1] did it give?
Its MIC is > 512 µg/mL.

And the MIC [2]?
Its MIC is > 512 µg/mL.

What about the MIC [3] of the same compound?
Its MIC is > 512 µg/mL.

And the MIC [4]?
The MIC was > 512 µg/mL.

And the MIC [5]?
Its MIC is > 512 µg/mL.

What does the source list for `COc1cc(/C=C/Oc2ccc(C)cc2)cc(OC)c1`?
MIC [1]: > 512 µg/mL; MIC [2]: > 512 µg/mL; MIC [3]: > 512 µg/mL; MIC [4]: > 512 µg/mL; MIC [5]: > 512 µg/mL

Which results are given for `COc1cc(/C=C/Oc2cccc(OC)c2)cc(OC)c1`?
MIC [1]: > 512 µg/mL; MIC [2]: > 512 µg/mL; MIC [3]: > 512 µg/mL; MIC [4]: > 512 µg/mL; MIC [5]: > 512 µg/mL

Which MIC [1] does the source give for `COc1cc(O)cc(O/C=C/c2ccccc2)c1` here?
Its MIC is 32 µg/mL (≈ 132 µM).

What about the MIC [2] of the same compound?
The MIC was 32 µg/mL (≈ 132 µM).

And the MIC [3]?
Its MIC is 64 µg/mL (≈ 264 µM).

What about the MIC [4] of the same compound?
Its MIC is > 512 µg/mL.

What about the MIC [5] of the same compound?
Its MIC is 128 µg/mL (≈ 528 µM).

How did the MIC [1] turn out when `COc1cc(OC)cc(O/C=C/c2ccccc2)c1` was run?
Its MIC is > 512 µg/mL.

And the MIC [2]?
Its MIC is > 512 µg/mL.

What about the MIC [3] of the same compound?
Its MIC is > 512 µg/mL.

What about the MIC [4] of the same compound?
Its MIC is > 512 µg/mL.

What about the MIC [5] of the same compound?
Its MIC is > 512 µg/mL.

Which results are given for `COc1cc(O)cc(/C=C/Oc2ccccc2)c1`?
MIC [1]: 32 µg/mL (≈ 132 µM); MIC [2]: 64 µg/mL (≈ 264 µM); MIC [3]: 32 µg/mL (≈ 132 µM); MIC [4]: > 512 µg/mL; MIC [5]: 128 µg/mL (≈ 528 µM)

Which MIC [1] does the source give for `COc1cc(O)cc(/C=C/Oc2ccc(C)cc2)c1` here?
Its MIC is 16 µg/mL (≈ 62.4 µM).

And the MIC [2]?
The MIC was 32 µg/mL (≈ 125 µM).

And the MIC [3]?
The MIC was 64 µg/mL (≈ 250 µM).

And the MIC [4]?
Its MIC is > 512 µg/mL.

What about the MIC [5] of the same compound?
Its MIC is > 128 µg/mL.

What does the source list for `COc1ccc(O/C=C/c2cc(O)cc(OC)c2)cc1`?
MIC [1]: 16 µg/mL (≈ 58.8 µM); MIC [2]: 64 µg/mL (≈ 235 µM); MIC [3]: 64 µg/mL (≈ 235 µM); MIC [4]: > 512 µg/mL; MIC [5]: 128 µg/mL (≈ 470 µM)

Which MIC [1] does the source give for `COc1cc(/C=C/Oc2ccccc2C)cc(OC)c1` here?
The MIC was > 512 µg/mL.

And the MIC [2]?
Its MIC is > 512 µg/mL.

And the MIC [3]?
The MIC was > 512 µg/mL.

And the MIC [4]?
Its MIC is > 512 µg/mL.

And the MIC [5]?
The MIC was > 512 µg/mL.

Which MIC [1] does the source give for `COc1cc(O)cc(/C=C/Oc2cccc(C)c2)c1` here?
Its MIC is 16 µg/mL (≈ 62.4 µM).

And the MIC [2]?
The MIC was 32 µg/mL (≈ 125 µM).

And the MIC [3]?
The MIC was 32 µg/mL (≈ 125 µM).

What about the MIC [4] of the same compound?
The MIC was > 512 µg/mL.

What about the MIC [5] of the same compound?
The MIC was 64 µg/mL (≈ 250 µM).

Which MIC [1] does the source give for `COc1cc(O)cc(/C=C/Sc2ccccc2)c1` here?
Its MIC is 16 µg/mL (≈ 61.9 µM).

And the MIC [2]?
The MIC was 32 µg/mL (≈ 124 µM).

And the MIC [3]?
The MIC was 16 µg/mL (≈ 61.9 µM).

And the MIC [4]?
The MIC was > 512 µg/mL.

And the MIC [5]?
Its MIC is 128 µg/mL (≈ 495 µM).

For `COc1cc(O)cc(/C=C/Oc2cccc(OC)c2)c1`, which MIC [1] is on record?
The MIC was 16 µg/mL (≈ 58.8 µM).

And the MIC [2]?
Its MIC is 64 µg/mL (≈ 235 µM).

What about the MIC [3] of the same compound?
Its MIC is 64 µg/mL (≈ 235 µM).

What about the MIC [4] of the same compound?
Its MIC is > 512 µg/mL.

And the MIC [5]?
The MIC was 128 µg/mL (≈ 470 µM).

Which results are given for `COc1cc(O)cc(/C=C/c2cccs2)c1`?
MIC [1]: 16 µg/mL (≈ 68.9 µM); MIC [2]: 32 µg/mL (≈ 138 µM); MIC [3]: 32 µg/mL (≈ 138 µM); MIC [4]: > 512 µg/mL; MIC [5]: 128 µg/mL (≈ 551 µM)

For `COc1cc(/C=C/Sc2ccccc2)cc(OC)c1`, which MIC [1] is on record?
Its MIC is > 512 µg/mL.

What about the MIC [2] of the same compound?
The MIC was > 512 µg/mL.

And the MIC [3]?
Its MIC is > 512 µg/mL.

And the MIC [4]?
Its MIC is > 512 µg/mL.

What about the MIC [5] of the same compound?
Its MIC is > 512 µg/mL.

`COc1ccc(O/C=C/c2cc(OC)cc(OC)c2)cc1` was tested. Which MIC [1] did it give?
The MIC was > 512 µg/mL.

And the MIC [2]?
The MIC was > 512 µg/mL.

What about the MIC [3] of the same compound?
The MIC was > 512 µg/mL.

What about the MIC [4] of the same compound?
Its MIC is > 512 µg/mL.

And the MIC [5]?
Its MIC is > 512 µg/mL.

Which results are given for `COc1cc(/C=C/c2ccccc2)cc(OC)c1` [3,5-O-DIMETHYLPINOSYLVIN]?
MIC [1]: > 512 µg/mL; MIC [2]: > 512 µg/mL; MIC [3]: > 512 µg/mL; MIC [4]: > 512 µg/mL; MIC [5]: > 512 µg/mL

Which MIC [6] does the source give for `COc1cc(O)cc(/C=C/c2ccccc2)c1` [PINOSYLVIN METHYL ETHER] here?
The MIC was 16 µg/mL (≈ 70.7 µM).

What about the MIC [7] of the same compound?
The MIC was 32 µg/mL (≈ 141 µM).

And the MIC [8]?
The MIC was 16 µg/mL (≈ 70.7 µM).

And the MIC [1]?
The MIC was 32 µg/mL (≈ 141 µM).

What about the MIC [9] of the same compound?
Its MIC is 32 µg/mL (≈ 141 µM).

What about the MIC [2] of the same compound?
The MIC was 32 µg/mL (≈ 141 µM).

And the MIC [10]?
The MIC was 32 µg/mL (≈ 141 µM).

And the MIC [11]?
Its MIC is 16 µg/mL (≈ 70.7 µM).

And the MIC [12]?
Its MIC is 16 µg/mL (≈ 70.7 µM).

What about the MIC [13] of the same compound?
Its MIC is 32 µg/mL (≈ 141 µM).

What about the MIC [14] of the same compound?
Its MIC is 64 µg/mL (≈ 283 µM).

What about the MIC [15] of the same compound?
Its MIC is 32 µg/mL (≈ 141 µM).

What about the MIC [16] of the same compound?
The MIC was 16 µg/mL (≈ 70.7 µM).

What about the MIC [17] of the same compound?
The MIC was 8 µg/mL (≈ 35.4 µM).

And the MIC [3]?
Its MIC is 16 µg/mL (≈ 70.7 µM).

What about the MIC [18] of the same compound?
The MIC was 64 µg/mL (≈ 283 µM).

What about the MIC [19] of the same compound?
Its MIC is 16 µg/mL (≈ 70.7 µM).

And the MIC [20]?
Its MIC is 8 µg/mL (≈ 35.4 µM).

What about the MIC [4] of the same compound?
Its MIC is > 512 µg/mL.

What about the MIC [21] of the same compound?
Its MIC is > 128 µg/mL.

What about the MIC [22] of the same compound?
The MIC was 16 µg/mL (≈ 70.7 µM).

What about the MIC [5] of the same compound?
The MIC was 64 µg/mL (≈ 283 µM).
